Source: publication PMC10054552, “Phototoxic Potential of Different DNA Intercalators for Skin Cancer Therapy: In Vitro Screening” (International Journal of Molecular Sciences, 2023)

Test system: MET1 cells
Test: Intracellular ROS production in MET1 cells (DHE fluorescence)
Format: cell-based, human
Details: 5 µM
Protocol: MET1 cells were seeded at a density of 20,000 cells/cm² in 24-well plates. After 24 h, cells were treated with MB and AO diluted in culture medium at low concentrations (1.25 µM, 2.5 µM and 5 µM). The medium culture was replaced by the prepared samples. Plates were incubated for 24 h; then, cells were washed with medium, and DMEM without phenol red was added. The plates were submitted to 2.5 J/cm² irradiation under red light at 640 nm for MB and 457 nm blue light for AO. Dihydroethidium (DHE) was used to evaluate ROS production. For this assay, the medium was removed after irradiation, and 20 µM of DHE diluted in medium was added. The plate was incubated for 20 min, washed with medium and incubated 20 min with Hoechst 33342 (5 µg/mL), which was used to stain the cells’ nuclei. After removing the excess dye, culture medium was added, and the cells were immediately observed using a Nikon Ti-S epifluorescence microscope. Cells were examined using a 40 × objective in random areas of 4 different wells under the same treatment condition. Images were analyzed using ImageJ software, and the intensity was measured according to integrated density values of red fluorescence.

CN(C)c1ccc2cc3ccc(N(C)C)cc3nc2c1 [Acridine orange, acridine orange]
increase in fluorescence (DHE, integrated density) vs irradiated control (457 nm irradiation 2.5 J/cm², vs irradiated control 0 µM): about 2.6 fold | increase in fluorescence intensity (DHE, integrated density) vs non-irradiated control (non-irradiated, vs non-irradiated control 0 µM): about 1.8 fold
